Organism: Rattus norvegicus
Experiment: Open TG-GATES - Regimen: Single
Assay type: toxicity, organism-based, Sprague-Dawley
Parameters: regimen Single, gender Male, age 6 weeks
Details: in vivo, ip, 0 mg/kg, route intraperitoneal injection, dose 0 ug/Kg, dose level Control; for APTT / Bas / Eos / Fbg / Hb / Ht / Lym / MCH / MCHC / MCV / Mono / Neu / PT / Plat / RBC / Ret / WBC: tissue Blood; for KIDNEY_L / KIDNEY_R / KIDNEY_TOTAL: tissue Kidney; for LIVER: tissue Liver; for A/G / ALP / ALT / AST / BUN / CRE / Ca / Cl / DBIL / GLC / IP / K / LDH / Na / PL / RALB / TBIL / TC / TG / TP / gamma-GTP: tissue Plasma

Question: For `CC(=O)N[C@H]1[C@@H](O[C@@H]2O[C@H](CC(O)[C@H]3O[C@@H](n4ccc(=O)[nH]c4=O)[C@H](O)[C@@H]3O)[C@H](O)[C@H](O)[C@H]2NC(=O)/C=C/CC(C)C)O[C@H](CO)[C@@H](N)[C@@H]1O` (some centres not stated) [TUNICAMYCIN], which TERMINAL_BW (3 h) is on record?
Answer: 221.9 g

Question: What about the APTT (3 h) of the same molecule?
Answer: 21.5 s

Question: And the Bas (3 h)?
Answer: 0%

Question: What about the Eos (3 h) of the same molecule?
Answer: 0.5%

Question: And the Fbg (3 h)?
Answer: 293.8 mg/dL

Question: What about the Hb (3 h) of the same molecule?
Answer: 13 g/dL

Question: And the Ht (3 h)?
Answer: 39.6%

Question: What about the Lym (3 h) of the same molecule?
Answer: 77%

Question: What about the MCH (3 h) of the same molecule?
Answer: 21.1 pg

Question: And the MCHC (3 h)?
Answer: 32.9%

Question: And the MCV (3 h)?
Answer: 64.1 fL

Question: What about the Mono (3 h) of the same molecule?
Answer: 2.8%

Question: And the Neu (3 h)?
Answer: 18.8%

Question: What about the PT (3 h) of the same molecule?
Answer: 15.8 s

Question: What about the Plat (3 h) of the same molecule?
Answer: 103.5 x10_4/uL

Question: And the RBC (3 h)?
Answer: 617.8 x10_4/ul

Question: What about the Ret (3 h) of the same molecule?
Answer: 8.1%

Question: What about the WBC (3 h) of the same molecule?
Answer: 129.5 x10_2/uL

Question: What about the KIDNEY_L (3 h) of the same molecule?
Answer: 1 g

Question: And the KIDNEY_R (3 h)?
Answer: 1 g

Question: And the KIDNEY_TOTAL (3 h)?
Answer: 2 g

Question: What about the LIVER (3 h) of the same molecule?
Answer: 10.3 g

Question: And the A/G (3 h)?
Answer: 1.2

Question: And the ALP (3 h)?
Answer: 1530.2 IU/L

Question: And the ALT (3 h)?
Answer: 45 IU/L

Question: What about the AST (3 h) of the same molecule?
Answer: 75 IU/L

Question: And the BUN (3 h)?
Answer: 14 mg/dL

Question: And the CRE (3 h)?
Answer: 0.2 mg/dL

Question: And the Ca (3 h)?
Answer: 10.6 mg/dL

Question: What about the Cl (3 h) of the same molecule?
Answer: 106.5 meq/L

Question: What about the DBIL (3 h) of the same molecule?
Answer: 0 mg/dL

Question: And the GLC (3 h)?
Answer: 175.2 mg/dL

Question: What about the IP (3 h) of the same molecule?
Answer: 8.4 mg/dL

Question: What about the K (3 h) of the same molecule?
Answer: 4.4 meq/L

Question: What about the LDH (3 h) of the same molecule?
Answer: 176.5 IU/L

Question: What about the Na (3 h) of the same molecule?
Answer: 140.2 meq/L

Question: What about the PL (3 h) of the same molecule?
Answer: 127.5 mg/dL

Question: And the RALB (3 h)?
Answer: 2.9 g/dL

Question: And the TBIL (3 h)?
Answer: 0.0125 mg/dL

Question: And the TC (3 h)?
Answer: 71.8 mg/dL

Question: And the TG (3 h)?
Answer: 72.5 mg/dL

Question: And the TP (3 h)?
Answer: 5.3 g/dL

Question: And the gamma-GTP (3 h)?
Answer: 1 IU/L

Question: What about the TERMINAL_BW (6 h) of the same molecule?
Answer: 222.7 g

Question: What about the APTT (6 h) of the same molecule?
Answer: 22.4 s

Question: And the Bas (6 h)?
Answer: 0%

Question: What about the Eos (6 h) of the same molecule?
Answer: 0.4%

Question: And the Fbg (6 h)?
Answer: 306.8 mg/dL

Question: What about the Hb (6 h) of the same molecule?
Answer: 13 g/dL

Question: What about the Ht (6 h) of the same molecule?
Answer: 40.2%

Question: And the Lym (6 h)?
Answer: 75.2%

Question: What about the MCH (6 h) of the same molecule?
Answer: 20.6 pg

Question: What about the MCHC (6 h) of the same molecule?
Answer: 32.4%

Question: What about the MCV (6 h) of the same molecule?
Answer: 63.4 fL

Question: And the Mono (6 h)?
Answer: 2%

Question: And the Neu (6 h)?
Answer: 22%

Question: And the PT (6 h)?
Answer: 15.4 s

Question: And the Plat (6 h)?
Answer: 114.6 x10_4/uL

Question: And the RBC (6 h)?
Answer: 634.2 x10_4/ul

Question: And the Ret (6 h)?
Answer: 7.9%

Question: And the WBC (6 h)?
Answer: 100.9 x10_2/uL

Question: What about the KIDNEY_L (6 h) of the same molecule?
Answer: 1 g

Question: What about the KIDNEY_R (6 h) of the same molecule?
Answer: 1 g

Question: And the KIDNEY_TOTAL (6 h)?
Answer: 2 g

Question: What about the LIVER (6 h) of the same molecule?
Answer: 10.1 g

Question: And the A/G (6 h)?
Answer: 1.2

Question: And the ALP (6 h)?
Answer: 1339.6 IU/L

Question: What about the ALT (6 h) of the same molecule?
Answer: 39.6 IU/L

Question: And the AST (6 h)?
Answer: 68.6 IU/L

Question: What about the BUN (6 h) of the same molecule?
Answer: 11 mg/dL

Question: What about the CRE (6 h) of the same molecule?
Answer: 0.1 mg/dL

Question: And the Ca (6 h)?
Answer: 10.9 mg/dL

Question: What about the Cl (6 h) of the same molecule?
Answer: 104.8 meq/L

Question: And the DBIL (6 h)?
Answer: 0 mg/dL

Question: And the GLC (6 h)?
Answer: 186.8 mg/dL

Question: And the IP (6 h)?
Answer: 9.2 mg/dL

Question: What about the K (6 h) of the same molecule?
Answer: 4.2 meq/L

Question: What about the LDH (6 h) of the same molecule?
Answer: 142.8 IU/L

Question: What about the Na (6 h) of the same molecule?
Answer: 142.4 meq/L

Question: And the PL (6 h)?
Answer: 133 mg/dL

Question: What about the RALB (6 h) of the same molecule?
Answer: 2.9 g/dL

Question: And the TBIL (6 h)?
Answer: 0.018 mg/dL

Question: And the TC (6 h)?
Answer: 74.2 mg/dL

Question: What about the TG (6 h) of the same molecule?
Answer: 63.2 mg/dL

Question: What about the TP (6 h) of the same molecule?
Answer: 5.4 g/dL

Question: And the gamma-GTP (6 h)?
Answer: 1.2 IU/L

Question: What about the TERMINAL_BW (9 h) of the same molecule?
Answer: 216.2 g

Question: And the APTT (9 h)?
Answer: 22.6 s

Question: What about the Bas (9 h) of the same molecule?
Answer: 0%

Question: And the Eos (9 h)?
Answer: 0.6%

Question: And the Fbg (9 h)?
Answer: 299.2 mg/dL

Question: What about the Hb (9 h) of the same molecule?
Answer: 13.1 g/dL

Question: And the Ht (9 h)?
Answer: 40.6%

Question: What about the Lym (9 h) of the same molecule?
Answer: 81.2%

Question: What about the MCH (9 h) of the same molecule?
Answer: 20.3 pg

Question: And the MCHC (9 h)?
Answer: 32.2%

Question: And the MCV (9 h)?
Answer: 63 fL

Question: And the Mono (9 h)?
Answer: 1.8%

Question: And the Neu (9 h)?
Answer: 15.8%

Question: What about the PT (9 h) of the same molecule?
Answer: 15.7 s

Question: And the Plat (9 h)?
Answer: 118.2 x10_4/uL

Question: What about the RBC (9 h) of the same molecule?
Answer: 643.6 x10_4/ul

Question: What about the Ret (9 h) of the same molecule?
Answer: 7.7%

Question: And the WBC (9 h)?
Answer: 98.9 x10_2/uL

Question: And the KIDNEY_L (9 h)?
Answer: 1 g

Question: What about the KIDNEY_R (9 h) of the same molecule?
Answer: 1 g

Question: What about the KIDNEY_TOTAL (9 h) of the same molecule?
Answer: 1.9 g

Question: And the LIVER (9 h)?
Answer: 8.6 g

Question: What about the A/G (9 h) of the same molecule?
Answer: 1.2

Question: What about the ALP (9 h) of the same molecule?
Answer: 1451.4 IU/L

Question: And the ALT (9 h)?
Answer: 37.6 IU/L

Question: What about the AST (9 h) of the same molecule?
Answer: 71 IU/L

Question: What about the BUN (9 h) of the same molecule?
Answer: 11.2 mg/dL

Question: And the CRE (9 h)?
Answer: 0.1 mg/dL

Question: What about the Ca (9 h) of the same molecule?
Answer: 10.3 mg/dL

Question: And the Cl (9 h)?
Answer: 104.8 meq/L

Question: What about the DBIL (9 h) of the same molecule?
Answer: 0 mg/dL

Question: What about the GLC (9 h) of the same molecule?
Answer: 195.4 mg/dL

Question: And the IP (9 h)?
Answer: 9.6 mg/dL

Question: What about the K (9 h) of the same molecule?
Answer: 4.2 meq/L

Question: What about the LDH (9 h) of the same molecule?
Answer: 158.4 IU/L

Question: And the Na (9 h)?
Answer: 141.8 meq/L

Question: What about the PL (9 h) of the same molecule?
Answer: 128 mg/dL

Question: And the RALB (9 h)?
Answer: 2.8 g/dL

Question: And the TBIL (9 h)?
Answer: 0.024 mg/dL

Question: And the TC (9 h)?
Answer: 74.2 mg/dL

Question: What about the TG (9 h) of the same molecule?
Answer: 54 mg/dL

Question: What about the TP (9 h) of the same molecule?
Answer: 5.2 g/dL

Question: And the gamma-GTP (9 h)?
Answer: 1 IU/L

Question: And the TERMINAL_BW (24 h)?
Answer: 234.3 g

Question: What about the APTT (24 h) of the same molecule?
Answer: 21.6 s

Question: What about the Bas (24 h) of the same molecule?
Answer: 0%

Question: What about the Eos (24 h) of the same molecule?
Answer: 1%

Question: And the Fbg (24 h)?
Answer: 295.2 mg/dL

Question: What about the Hb (24 h) of the same molecule?
Answer: 12.7 g/dL

Question: What about the Ht (24 h) of the same molecule?
Answer: 39.1%

Question: And the Lym (24 h)?
Answer: 78.6%

Question: And the MCH (24 h)?
Answer: 20.2 pg

Question: And the MCHC (24 h)?
Answer: 32.4%

Question: And the MCV (24 h)?
Answer: 62.4 fL

Question: What about the Mono (24 h) of the same molecule?
Answer: 3.6%

Question: What about the Neu (24 h) of the same molecule?
Answer: 16.2%

Question: And the PT (24 h)?
Answer: 16.2 s

Question: And the Plat (24 h)?
Answer: 119.3 x10_4/uL

Question: And the RBC (24 h)?
Answer: 626.8 x10_4/ul

Question: And the Ret (24 h)?
Answer: 7.3%

Question: And the WBC (24 h)?
Answer: 88.7 x10_2/uL

Question: And the KIDNEY_L (24 h)?
Answer: 1.1 g

Question: And the KIDNEY_R (24 h)?
Answer: 1.1 g

Question: What about the KIDNEY_TOTAL (24 h) of the same molecule?
Answer: 2.1 g

Question: What about the LIVER (24 h) of the same molecule?
Answer: 10.8 g

Question: And the A/G (24 h)?
Answer: 1.2

Question: What about the ALP (24 h) of the same molecule?
Answer: 1584.8 IU/L

Question: What about the ALT (24 h) of the same molecule?
Answer: 42.2 IU/L

Question: What about the AST (24 h) of the same molecule?
Answer: 71.2 IU/L

Question: And the BUN (24 h)?
Answer: 16.6 mg/dL

Question: And the CRE (24 h)?
Answer: 0.1 mg/dL

Question: What about the Ca (24 h) of the same molecule?
Answer: 10.5 mg/dL

Question: And the Cl (24 h)?
Answer: 105.2 meq/L

Question: What about the DBIL (24 h) of the same molecule?
Answer: 0 mg/dL

Question: What about the GLC (24 h) of the same molecule?
Answer: 184.4 mg/dL

Question: And the IP (24 h)?
Answer: 6.8 mg/dL

Question: And the K (24 h)?
Answer: 4.6 meq/L

Question: What about the LDH (24 h) of the same molecule?
Answer: 146.4 IU/L

Question: And the Na (24 h)?
Answer: 141.2 meq/L

Question: And the PL (24 h)?
Answer: 136 mg/dL

Question: What about the RALB (24 h) of the same molecule?
Answer: 3.1 g/dL

Question: What about the TBIL (24 h) of the same molecule?
Answer: 0.008 mg/dL

Question: What about the TC (24 h) of the same molecule?
Answer: 73.6 mg/dL

Question: And the TG (24 h)?
Answer: 70.8 mg/dL

Question: What about the TP (24 h) of the same molecule?
Answer: 5.5 g/dL

Question: And the gamma-GTP (24 h)?
Answer: 1.8 IU/L

Reference: ChEMBL document CHEMBL3885861, “Open TG-GATES”
